Numbered stars: 1 amine (or outer) side, 2 acyl side, 3 side chain; on linkers, the order of the positions; unused ones are H or OH. Bridge positions count the residues as written; N and C are the ends. Square brackets hold non-standard residues; d marks the D form. Peptide text beside a SMILES is read from it. X3 = O=C(/C=N/OCCCCCCOc1cc(C[*:2])cc(C[*:3])c1)[*:1]; X1 = O=C(C=NOCCCCCCOc1cc(C[*:2])cc(C[*:3])c1)[*:1]; Met(O) = CS(=O)CC[C@H](N)C(=O)O
Each molecule was assayed against T1, rh-integrin α4β7/LPAM-1 (Homo sapiens, UniProt P13612+P26010) (assay: α4β7-MadCAM Competition ELISA (Example 4)). Settings: Table 3 Representative compounds; inhibition of MAdCAM binding to coated α4β7; read-out: IC50.
T1 sequence (P13612 34-977 limits assumed): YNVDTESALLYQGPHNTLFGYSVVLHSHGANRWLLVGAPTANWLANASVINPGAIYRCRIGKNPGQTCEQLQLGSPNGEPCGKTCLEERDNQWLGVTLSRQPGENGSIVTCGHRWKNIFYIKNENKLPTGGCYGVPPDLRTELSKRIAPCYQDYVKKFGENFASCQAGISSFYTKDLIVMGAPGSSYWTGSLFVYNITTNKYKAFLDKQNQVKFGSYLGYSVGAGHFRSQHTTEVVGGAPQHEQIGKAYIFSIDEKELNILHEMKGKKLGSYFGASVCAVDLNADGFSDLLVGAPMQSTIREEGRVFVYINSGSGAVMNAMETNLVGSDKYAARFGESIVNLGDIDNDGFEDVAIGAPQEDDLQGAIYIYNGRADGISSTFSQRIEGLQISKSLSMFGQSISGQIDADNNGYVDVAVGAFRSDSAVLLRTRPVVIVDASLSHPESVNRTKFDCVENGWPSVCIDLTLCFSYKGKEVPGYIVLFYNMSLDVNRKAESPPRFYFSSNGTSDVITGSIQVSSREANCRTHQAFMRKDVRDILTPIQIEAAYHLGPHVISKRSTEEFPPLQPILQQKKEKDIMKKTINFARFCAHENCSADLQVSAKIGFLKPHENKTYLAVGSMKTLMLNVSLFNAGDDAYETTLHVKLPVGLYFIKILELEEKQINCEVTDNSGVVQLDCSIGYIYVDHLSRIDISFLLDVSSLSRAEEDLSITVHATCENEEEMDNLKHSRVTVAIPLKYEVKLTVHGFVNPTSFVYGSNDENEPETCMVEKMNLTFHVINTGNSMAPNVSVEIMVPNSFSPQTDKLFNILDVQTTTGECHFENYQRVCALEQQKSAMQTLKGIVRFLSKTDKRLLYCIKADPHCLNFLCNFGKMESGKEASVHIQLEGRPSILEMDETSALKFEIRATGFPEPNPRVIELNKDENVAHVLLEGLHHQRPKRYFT
T1 sequence (P26010 20-723 limits assumed): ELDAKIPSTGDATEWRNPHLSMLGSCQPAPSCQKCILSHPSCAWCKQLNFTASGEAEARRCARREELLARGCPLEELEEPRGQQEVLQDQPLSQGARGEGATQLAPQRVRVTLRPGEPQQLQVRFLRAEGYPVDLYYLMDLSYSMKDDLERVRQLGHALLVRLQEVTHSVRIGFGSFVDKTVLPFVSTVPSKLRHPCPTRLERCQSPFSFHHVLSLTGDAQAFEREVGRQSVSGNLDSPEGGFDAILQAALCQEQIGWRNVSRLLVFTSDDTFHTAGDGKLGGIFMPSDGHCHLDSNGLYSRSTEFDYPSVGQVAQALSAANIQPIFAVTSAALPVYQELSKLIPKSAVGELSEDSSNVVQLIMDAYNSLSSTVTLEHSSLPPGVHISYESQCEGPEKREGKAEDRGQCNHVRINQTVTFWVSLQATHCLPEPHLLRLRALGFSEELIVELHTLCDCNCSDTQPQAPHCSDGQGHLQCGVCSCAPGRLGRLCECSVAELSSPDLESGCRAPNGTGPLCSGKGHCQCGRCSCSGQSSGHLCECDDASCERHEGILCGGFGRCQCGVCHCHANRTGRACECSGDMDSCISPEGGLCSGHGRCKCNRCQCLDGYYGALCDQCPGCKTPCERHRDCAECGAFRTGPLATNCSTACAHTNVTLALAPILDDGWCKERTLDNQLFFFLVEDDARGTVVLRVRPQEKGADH
Format: binding
Protocol: After washing with wash buffer, 200 μL assay buffer was added to each well and incubated for one hour at 28° C. After another wash with wash buffer, 100 μL of a MAdCAM and peptide mixture in assay buffer was added to each well and incubated for one hour at 28° C., followed by washing with wash buffer.
Molecule `CC(C)C[C@@H]1NC(=O)[C@@H]2CCCN2C(=O)[C@@H]2CSCc3cc(cc(c3)OCCCCCCO/N=C/C(=O)N[C@@H](CCCCN)C(=O)N2)CSC[C@@H](C(N)=O)NC(=O)[C@H](CO)NC(=O)[C@@H]2CCCN2C(=O)[C@H](C(C)C)NC(=O)[C@H](C)NC1=O` [compound 81, TSL6- SKCPLAVPSC] (KCPLAVPSC-NH2; linker N-2-9 via X3) has an IC50 of 55.9 µM.
For `CCCC[C@@H]1NC(=O)[C@@H]2CCCN2C(=O)[C@@H]2CSCc3cc(cc(c3)OCCCCCCC(=O)NCC(=O)N[C@@H](CCCCN)C(=O)N2)CSC[C@@H](C(N)=O)NC(=O)[C@H](CCCCN)NC(=O)[C@H](C(C)C)NC(=O)[C@H](Cc2c[nH]c3ccccc23)NC(=O)[C@H]([C@@H](C)CC)NC(=O)[C@H](CC(=O)O)NC1=O` (stereo in doubt) [compound 21, TSLC7- GKCP{Nle} DIWVKC], the IC50 was 0.45 µM.
`CC(C)C[C@@H]1NC(=O)[C@@H]2CCCN2C(=O)[C@@H]2CSCc3cc(cc(c3)OCCCCCCO/N=C/C(=O)N[C@@H](CCCNC(=N)N)C(=O)N2)CSC[C@@H](C(N)=O)NC(=O)[C@H](CCC(=O)O)NC(=O)[C@H](Cc2ccc(O)cc2)NC(=O)[C@H](C)NC(=O)[C@H]([C@@H](C)O)NC(=O)[C@H](CC(=O)O)NC1=O` [compound 38, TSL6- SKCPLDTAYEC] (RCPLDTAYEC-NH2; linker N-2-10 via X3) showed an IC50 of 1.04 µM.
`CC[C@H](C)[C@@H]1NC(=O)[C@H](CC(=O)O)NC(=O)[C@H](C)NC(=O)[C@@H]2CCCN2C(=O)[C@@H]2CSCc3cc(cc(c3)OCCCCCCO/N=C/C(=O)N[C@@H](CCC(N)=O)C(=O)N2)CSC[C@@H](C(N)=O)NC(=O)[C@H]([C@@H](C)O)NC(=O)[C@@H]2CCCN2C1=O` [compound 78, TSL6- SQCPADIPTC] (QCPADIPTC-NH2; linker N-2-9 via X3) gave an IC50 of 43.7 µM.
In the case of `CC(C)C[C@@H]1NC(=O)[C@@H]2CCCN2C(=O)[C@@H]2CSCc3cc(cc(c3)OCCCCCCO/N=C/C(=O)N[C@@H](CCCCN)C(=O)N2)CSC[C@@H](C(N)=O)NC(=O)[C@H](CCC(=O)O)NC(=O)[C@H](Cc2ccc(O)cc2)NC(=O)[C@@H]2CCCN2C(=O)[C@H](CC(C)C)NC(=O)[C@H](CC(=O)O)NC1=O` [compound 19] (KCPLDLPYEC-NH2; linker N-2-10 via X3), the IC50 is reported as 0.363 µM.
For `CC[C@H](C)[C@@H]1NC(=O)[C@H]([C@@H](C)O)NC(=O)[C@H](CC(=O)O)NC(=O)[C@H](CO)NC(=O)[C@H](CCCNC(=N)N)NC(=O)[C@@H]2CSCc3cc(cc(c3)OCCCCCCO/N=C/C(=O)N[C@@H](C)C(=O)N2)CSC[C@@H](C(N)=O)NC1=O` [compound 90, TSL6- SACRSDTLC] (ACRSDTIC-NH2; linker N-2-8 via X3), the IC50 was 79.8 µM.
`CSCC[C@@H]1NC(=O)[C@@H]2CSCc3cc(cc(c3)OCCCCCCO/N=C/C(=O)NCC(=O)N2)CSC[C@@H](C(N)=O)NC(=O)[C@H](Cc2ccccc2)NC(=O)[C@H](C)NC(=O)[C@H](Cc2ccccc2)NC(=O)[C@H](CC(=O)O)NC(=O)[C@H](CC(=O)O)NC1=O` [compound 82, TSL6- SGCMDDFAFC] (GCMDDFAFC-NH2; linker N-2-9 via X3) was tested, and the IC50 was 59.1 µM.
For `CSCC[C@@H]1NC(=O)/C=N/OCCCCCCOc2cc3cc(c2)CSC[C@H](NC1=O)C(=O)N1CCC[C@H]1C(=O)N[C@@H](CC(C)C)C(=O)N[C@@H](Cc1ccc(O)cc1)C(=O)N[C@@H](CCCCN)C(=O)N[C@@H](C(C)C)C(=O)N[C@@H](Cc1cnc[nH]1)C(=O)N[C@H](C(N)=O)CSC3` [compound 98, TSL6- SMCPLYKVHC] (MCPLYKVHC-NH2; linker N-2-9 via X3), the IC50 was 151 µM.

Same assay, conditions: competition ELISA, 4 μg/mL α4β7 coated, MAdCAM and peptide mixture, 28° C.; read-out: IC50
`CC[C@H](C)[C@@H]1NC(=O)[C@H](C)NC(=O)[C@H](CC[S+](C)[O-])NC(=O)[C@@H]2CCCN2C(=O)[C@@H]2CSCc3cc(cc(c3)OCCCCCCON=CC(=O)N[C@@H](CCC(N)=O)C(=O)N2)CSC[C@@H](C(=O)O)NC(=O)[C@H]([C@@H](C)O)NC(=O)[C@@H]2CCCN2C1=O` (stereo partly drawn) [SEQ ID NO: 80] (QCP[Met(O)]AIPTC-OH; linker N-2-9 via X1) showed an IC50 of 152 µM.

From US20230145835A1, “Modulators of Alpha-4-beta-7 Integrin and MAdCAM” (48HD Biopharma Inc., priority 2021, published 2023)
